The values that follow come from patent US9200171B2, “AZO compound and ink containing the compound” (MITSUBISHI CHEMICAL CORPORATION, priority 2011, dated 2015).

Data set [1] in a line: Relative permittivity of solvent (impedance meter method, 1 kHz, 22° C.). The format is physicochemical. The note with it: frequency 1 kHz. From the text: In the case where the solvent is used as a mixture, when the interaction between the solvents is small as in the invention, the relative permittivity of the mixed solvent can be approximated by multiplying relative permittivity of each solvent constituting the mixed solvent by each volume fraction and summing respective products. Moreover, when the interaction between the solvents is similarly small, solubility of the mixed solvent in water can be approximated by a value obtained by multiplying solubility of each solvent constituting the mixed solvent in water by each molar fraction and summing respective products.
Thereafter, the equivalent parallel capacity was measured while applying a test signal voltage of 0.1 V at a frequency of 1 kHz at 22° C. The relative permittivity was determined through the calculation according to the following equation to evaluate the solvent or ink. Relative permittivity=(equivalent parallel capacity)×(electrode spacing)/(electrode area)/(permittivity in vacuum (ε0)) <Method for Measuring Solubility of Solvent in Water>

Data set [2] can be described thus: Solubility of solvent in water at 25° C. The format is physicochemical. Particulars: pure water, thermodynamic from solid, single solvent. Here is the method:
Pure water (30 g) and a solvent (8 g) were introduced into 110 ml of a vial, which was shaken 200 times/minute for 4 hours in a constant-temperature tank at 25° C. The mixture after shaking was centrifuged (6000×g, for 5 minutes), the aqueous layer was sampled, and the concentration of the solvent dissolved was quantitatively determined by gas chromatography. Since Isopar was not a single compound but a mixture, the quantitative determination was performed as TOC (total organic carbon), which was converted into solubility according to the following equation, the average molecular weight being shown as Mw. Solubility [mg/L]=TOC [mg/L]×(14Mw/{12(Mw−2)}
In the case of a mixed solvent in which two or more kinds of solvents were mixed, the solubility in water was determined by multiplying the solubility of each solvent in water by each molar fraction and summing up the resulting products.
In the case where the solvent species used is unclear, the solubility in water can be measured by the above method through identification of the solvent species by mass spectroscopy or the like.

As for `CCCCCCCCCC` [n-decane], in data set [1], the relative permittivity was found to be 2.0. Moreover, in data set [2], the solubility (commonly the concentration that dissolves in the medium under given conditions) at 4 h is at most 1 µg/mL.

In data set [1], n-decaline had a relative permittivity of 2.0.
